Reference: patent US11639332B2, “Methods and compositions of isoindoline-1,3-dione and isoindole prodrugs useful for treating cancer, ulcerative colitis and related inflammatory diseases” (AMGEN (EUROPE) GMBH, priority 2018, dated 2023)
Where “and” joins values, the source holds several entries; their conditions need not be identical. Equal entries are not always repeated.

System: Trinitrobenzenesulfonic Acid (TNBS) Rat Model of Colonic Inflammation
Test: Trinitrobenzenesulfonic acid (TNBS) rat model of colonic inflammation, oral treatment Days 1-6, evaluation Day 7
Type: in vivo, Sprague-Dawley rats
Set-up: key to Average Colonic Score: sum of adhesions, strictures, ulcers and wall thickness scores
Details: for Average # Ulcers / Average Colon Length / Average Colon Weight / Average Colonic Score / Average Ratio (colon length/colon weight) / Average Ulcer Length / Average Wall Thickness / Average Adhesions / Average Colon Wall Thickness, score / Average Strictures / Average Ulcers, score / Average Rat Weight: group mean; for Average # Ulcers / Average Colon Length / Average Colon Weight / Average Colonic Score / Average Ratio (colon length/colon weight) / Average Ulcer Length / Average Wall Thickness / Average Adhesions / Average Colon Wall Thickness, score / Average Strictures / Average Ulcers, score / # Ulcers / Colon Length / Colon Weight / Ratio (colon length/colon weight) / Ulcer Length / Wall Thickness / Colon Wall Thickness, score / Ulcers, score / Strictures / Adhesions / Colonic Score: Day 7; for Average Adhesions / Average Colon Wall Thickness, score: score 0-2; for Average Strictures / Average Ulcers, score: score 0-3; for # Ulcers / Colon Length / Colon Weight / Ratio (colon length/colon weight) / Ulcer Length / Wall Thickness / Colon Wall Thickness, score / Ulcers, score / Strictures / Adhesions / Colonic Score / Rat Weight: individual rats; for Colon Wall Thickness, score: less than 1 mm=0, 1-3 mm=1, >3 mm=2; for Ulcers, score: none=0, linear ulceration <1 cm=1, two linear ulcers <1 cm=2, more sites or one large ulcer=3; for Strictures: score none=0, mild=1, moderate=2, severe, proximal dilatation=3; for Adhesions: score none=0, minimal=1, involving several bowel loops=2; for Colonic Score: sum of adhesions, strictures, ulcers and wall thickness scores
Experimental: In Vivo Efficacy of PDE4 Inhibitor Prodrug in the Trinitrobenzenesulfonic Acid (TNBS) Rat Model of Colonic Inflammation
2. 1.62 g of prodrug from Example 2 (WB301), lot 2 (MW 587.12) in a clear 20 mL glass vial (orange material) which was stored at 4-8° C.
38 Sprague-Dawley rats (Harlan Sprague-Dawley, Inc. male, PO #599229, R #3450, 200-220 g) were received, individually examined and housed in nine cages of four rats each and one cage containing two rats. No clinical signs of disease or distress were observed. The rats were placed in quarantine with daily inspections. The rats were ear notched (SOP 800) for identification purposes, weighed (RESULTS), and sorted into four treatment groups of eight rats each based upon average body weight. The rats were individually examined and found to be free of any clinical signs of disease or distress. No deaths were recorded during the quarantine period. The rats were released to routine maintenance.
A 16 mg/ml TNBS solution was prepared be adding 2.729 ml picrylsulfonic acid solution (1 M, FLU KA, Cat. 92822, lot CDBB6609V) to 22.271 ml de-ionized water (dH20) and 25 ml 100% ethanol (200 proof, Sigma, Cat. E7023, lot SHBH3633V).
The rats were weighed (RESULTS), anesthetized (SOP1810) and Groups 1-4 were intra-rectally instilled with 4 ml/kg TNBS solution (64 mg/kg), the anus was pinched closed and the rat held inverted for one minute.
400 mg (-)riboflavin was dissolved in 40 ml DMSO (Sigma, Cat. D5879, lot 16K0127) by sonication in a 40° C. water bath for 20 minutes in an amber glass bottle, followed by storage at room temperature overnight to prepare a 10 mg/ml yellow solution.
135 mg NaOH (Fisher Scientific, Cat. S320, lot 066620) was dissolved in 100 ml dH2O to prepare a 1.35 mg/ml solution. 128.46 mg prednisolone 21-hemisuccinate sodium salt (Sigma, Cat. P4153, lot BCBB6136V, salt factor 1.339) was dissolved in 9.59 ml (-)riboflavin/DMSO followed by addition of 9.59 ml PEG400 (Sigma, Cat. 91893, lot BCBB7720). 28.781 aqueous NaOH was added with sonication to prepare a 2 mg/ml solution for Group 4. 44 mg WB301 was vortexed in 2.19 ml (-)riboflavin/DMSO to yield an orange solution followed by addition of 2.19 ml PEG400. 6.621 ml aqueous NaOH was added with sonication to prepare a 4 mg/ml solution for Group 1. 132 mg WB301 was vortexed in 2.19 ml (-)riboflavin/DMSO to yield an orange solution followed by addition of 2.19 ml PEG400. 6.621 ml aqueous NaOH was added with sonication to prepare a 12 mg/ml solution for Group 2. 6.6 mg apremilast was vortexed in 2.2 ml (-)riboflavin/DMSO to yield an orange solution followed by addition of 6.6 ml PEG400. 2.2 ml dH2O was added to prepare a 0.6 mg/ml solution for Group 3.
The rats were weighed (RESULTS) and daily oral (PO, SOP 1651) dosing at 5 ml/kg was initiated as in TABLE 1.
The rats were weighed (RESULTS) and the animals were dosed as described above daily. WB301 and apremilast solutions were prepared fresh daily as described above.
The rats were weighed (RESULTS) anesthetized, a midline incision was made in the abdomen and the colon was evaluated for adhesions and stricture (RESULTS). The colon was removed and the length recorded (RESULTS). A midline incision was made the entire length of the colon, the contents removed and the colon weight and colon wall thickness recorded (RESULTS). A section of the colon was preserved in 20 volumes of 10% neutral buffered formalin (Richard-Allan Scientific, Cat. 5701, lot 378532, exp07/2020). The carcasses were disposed of.
3) involving several bowel loops=2
4) severe, proximal dilatation=3
2) linear ulceration <1 cm=1
3) two linear ulcers <1 cm=2
4) more sites of ulceration or one large ulcer=3

[1] = Group 1, 20 mg/kg once daily oral, starting 24 hours after TNBS
[2] = Group 2, 60 mg/kg once daily oral
[3] = Group 2, 60 mg/kg PO daily, study day 0, day of TNBS, before dosing
[4] = Group 2, 60 mg/kg PO daily, study day 1, before first dose
[5] = Group 2, 60 mg/kg PO daily, study day 2
[6] = Group 2, 60 mg/kg PO daily, study day 3
[7] = Group 2, 60 mg/kg PO daily, study day 4
[8] = Group 2, 60 mg/kg PO daily, study day 5
[9] = Group 2, 60 mg/kg PO daily, study day 6
[10] = Group 2, 60 mg/kg PO daily, study day 7
[11] = Group 2, 60 mg/kg PO daily, study day −3, before TNBS and dosing

CCOc1cc([C@@H](CS(C)(=O)=O)N2C(=O)c3cccc(/N=N/c4ccc(O)c(C(=O)O)c4)c3C2=O)ccc1OC [WB301]
effect on TNBS-induced damage across doses (20 and 60 mg/kg once daily oral, starting 24 hours after TNBS): dose-dependent reduction in the TNBS-induced damage
amelioratory effect on TNBS-induced damage [1]: no apparent amelioratory effect was observed
weight loss [1]: 15%
macroscopic disease scores [2]: improvement of the macroscopic disease scores
study day on which rats began to recover from TNBS-induced weight loss [2]: 6 days
reduction in overall colonic score (Group 2, 60 mg/kg once daily oral, assuming a colonic score of 10 for vehicle-treated rats): 25%
stool observation in cages/bedding (Group 2, 60 mg/kg once daily oral, starting DAY 4, indicative of partial colon function): Diarrhea was observed in the bedding
Average # Ulcers (Group 1, 20 mg/kg PO daily): 1
Average Colon Length (Group 1, 20 mg/kg PO daily): 11.4 cm
Average Colon Weight (Group 1, 20 mg/kg PO daily): 6.652 g
Average Colonic Score (Group 1, 20 mg/kg PO daily): 9.1
Average Ratio (colon length/colon weight) (Group 1, 20 mg/kg PO daily): 1.915 cm/g
Average Ulcer Length (Group 1, 20 mg/kg PO daily): 6.3 cm
Average Wall Thickness (Group 1, 20 mg/kg PO daily): 3.4 mm
Average Adhesions (Group 1, 20 mg/kg PO daily): 1.5
Average Colon Wall Thickness, score (Group 1, 20 mg/kg PO daily): 1.8
Average Strictures (Group 1, 20 mg/kg PO daily): 2.9
Average Ulcers, score (Group 1, 20 mg/kg PO daily): 3.0
Average Rat Weight (Group 1, 20 mg/kg PO daily, study day 0, day of TNBS, before dosing): 219 g
Average Rat Weight (Group 1, 20 mg/kg PO daily, study day 1, before first dose): 213 g
Average Rat Weight (Group 1, 20 mg/kg PO daily, study day 2): 203 g
Average Rat Weight (Group 1, 20 mg/kg PO daily, study day 3): 197 g
Average Rat Weight (Group 1, 20 mg/kg PO daily, study day 4): 195 g
Average Rat Weight (Group 1, 20 mg/kg PO daily, study day 5): 189 g
Average Rat Weight (Group 1, 20 mg/kg PO daily, study day 6): 189 g
Average Rat Weight (Group 1, 20 mg/kg PO daily, study day 7): 186 g
Average Rat Weight (Group 1, 20 mg/kg PO daily, study day −3, before TNBS and dosing): 215 g
Average # Ulcers (Group 2, 60 mg/kg PO daily): 1
Average Colon Length (Group 2, 60 mg/kg PO daily): 14.4 cm
Average Colon Weight (Group 2, 60 mg/kg PO daily): 4.604 g
Average Colonic Score (Group 2, 60 mg/kg PO daily): 7.5
Average Ratio (colon length/colon weight) (Group 2, 60 mg/kg PO daily): 3.891 cm/g
Average Ulcer Length (Group 2, 60 mg/kg PO daily): 5.6 cm
Average Wall Thickness (Group 2, 60 mg/kg PO daily): 2.6 mm
Average Adhesions (Group 2, 60 mg/kg PO daily): 1.3
Average Colon Wall Thickness, score (Group 2, 60 mg/kg PO daily): 1.1
Average Strictures (Group 2, 60 mg/kg PO daily): 2.1
Average Ulcers, score (Group 2, 60 mg/kg PO daily): 3.0
Average Rat Weight [3]: 216 g
Average Rat Weight [4]: 207 g
Average Rat Weight [5]: 200 g
Average Rat Weight [6]: 193 g
Average Rat Weight [7]: 192 g
Average Rat Weight [8]: 191 g
Average Rat Weight [9]: 195 g
Average Rat Weight [10]: 196 g
Average Rat Weight [11]: 215 g
# Ulcers (Group 1, 20 mg/kg PO daily): 1
Colon Length (Group 1, 20 mg/kg PO daily): 12.0 cm and 10.0 cm and 10.5 cm and 11.0 cm (3×) and 12.5 cm and 13.5 cm
Colon Weight (Group 1, 20 mg/kg PO daily): 9.124 g and 7.629 g and 3.180 g and 4.920 g and 9.000 g and 8.300 g and 6.200 g and 4.862 g
Ratio (colon length/colon weight) (Group 1, 20 mg/kg PO daily): 1.315 cm/g and 1.311 cm/g and 3.302 cm/g and 2.236 cm/g and 1.389 cm/g and 1.325 cm/g and 2.177 cm/g and 2.262 cm/g
Ulcer Length (Group 1, 20 mg/kg PO daily): 6.0 cm (3×) and 6.3 cm and 7.0 cm and 5.5 cm and 6.8 cm and 6.5 cm
Wall Thickness (Group 1, 20 mg/kg PO daily): 3.5 mm and 3.2 mm and 4.0 mm (2×) and 3.7 mm (2×) and 2.5 mm (2×)
Colon Wall Thickness, score (Group 1, 20 mg/kg PO daily): 2 (6×) and 1 (2×)
Ulcers, score (Group 1, 20 mg/kg PO daily): 3
Strictures (Group 1, 20 mg/kg PO daily): 3 (7×) and 2
Adhesions (Group 1, 20 mg/kg PO daily): 1 (4×) and 2 (4×)
Colonic Score (Group 1, 20 mg/kg PO daily): 9 (2×) and 10 (4×) and 8 and 7
# Ulcers (Group 2, 60 mg/kg PO daily): 1
Colon Length (Group 2, 60 mg/kg PO daily): 15.0 cm (5×) and 14.5 cm and 14.0 cm and 11.5 cm
Colon Weight (Group 2, 60 mg/kg PO daily): 2.551 g and 1.969 g and 6.164 g and 5.418 g and 9.037 g and 4.831 g and 4.140 g and 2.719 g
Ratio (colon length/colon weight) (Group 2, 60 mg/kg PO daily): 5.880 cm/g and 7.618 cm/g and 2.352 cm/g and 2.769 cm/g and 1.549 cm/g and 3.105 cm/g and 3.623 cm/g and 4.229 cm/g
Ulcer Length (Group 2, 60 mg/kg PO daily): 3.5 cm and 4.0 cm and 6.0 cm (2×) and 6.5 cm (2×) and 6.7 cm and 5.5 cm
Wall Thickness (Group 2, 60 mg/kg PO daily): 2.0 mm (4×) and 3.0 mm (2×) and 4.0 mm and 2.5 mm
Colon Wall Thickness, score (Group 2, 60 mg/kg PO daily): 1 (7×) and 2
Ulcers, score (Group 2, 60 mg/kg PO daily): 3
Strictures (Group 2, 60 mg/kg PO daily): 1 (2×) and 0 and 3 (5×)
Adhesions (Group 2, 60 mg/kg PO daily): 0 (2×) and 2 (4×) and 1 (2×)
Colonic Score (Group 2, 60 mg/kg PO daily): 5 and 4 and 9 (3×) and 8 and 10 and 6
Rat Weight [3]: 217 g and 215 g and 214 g and 222 g and 208 g and 211 g and 220 g (2×)
Rat Weight [4]: 206 g and 202 g and 213 g (2×) and 207 g and 203 g (2×) and 212 g
Rat Weight [5]: 205 g and 199 g and 204 g and 200 g (2×) and 195 g and 206 g and 193 g
Rat Weight [6]: 199 g and 200 g (2×) and 197 g and 196 g and 184 g (2×) and 183 g
Rat Weight [7]: 192 g and 212 g and 200 g (2×) and 193 g and 179 g and 183 g and 176 g
Rat Weight [8]: 196 g and 226 g and 191 g and 192 g and 182 g and 174 g and 199 g and 171 g
Rat Weight [9]: 207 g and 233 g and 193 g and 197 g and 184 g and 172 g and 199 g and 171 g
Rat Weight [10]: 220 g and 244 g and 187 g and 189 g and 178 g and 169 g and 196 g and 181 g
Rat Weight [11]: 214 g and 212 g and 215 g and 219 g and 208 g and 210 g and 220 g (2×)
